Data on 1 compound can be found in patent publication US20200223848A1, “DEGRADATION AGENT USING AUTOPHAGIC MECHANISM OF DAMAGED MITOCHONDRIA” (TOHOKU UNIVERSITY, priority 2017, published 2020).

Structures are written as SMILES.

Assay type in all cases: cell-based
For one experiment, the system named is HeLa cells. Kind of experiment: Cytoprotective effect against mitochondrial injury induced by uncoupler CCCP (Hoechst33342 nuclear staining, DNA fragmentation, cell viability). From the text: Assessment Method for Cytoprotective Effect of Compound of Example 3, (R)-2-Acetylamino-3-[2-amino-9-(4-fluoro-benzyl)-6-oxo-6,9-dihydro-1H-purin-8-ylsulfanyl]-N-{3-[2-(2-{3-[2-oxo-2-(2-phenyl-1H-indol-3-yl)-acetylamino]-propoxy}-ethoxy)-ethoxy]-propyl}-propionamide (Indole-FBn), Against Mitochondrial Injury, and Confirmation of Inhibition of Cytoprotective Effect with Autophagy Inhibitor (Bafilomycin A1: Baf A1)
Cell Viability under Condition of Treating Cells with Indole-FBn and CCCP (Test Group):
HeLa cells seeded in Dulbecco's Modified Eagle Medium (DMEM) in a 96-well plate at 30,000 cells/well were incubated under the conditions of 37° C./5% CO2 overnight. […]
Subsequently, the uncoupler CCCP was added at a final concentration of 10 μM, followed by further incubation for 2 hours to induce mitochondrial injury. Cells in each of which DNA fragmentation was found in the nucleus were judged to be dead cells, and cell viability was calculated by the following equation. […]
HeLa cells seeded in Dulbecco's Modified Eagle Medium (DMEM) in a 96-well plate at 30,000 cells/well were incubated under the conditions of 37° C./5% CO2 for 1 day, and then subjected to nuclear staining by Hoechst33342 staining. […] Cells in each of which DNA fragmentation was found in the nucleus were judged to be dead cells, and cell viability was calculated. […]

In experiment [1] the test system is HeLa cells stably expressing EmGFP-HaloTag-Omp25. Kind of experiment: Living cell imaging of degradation of injured mitochondria (EmGFP-HaloTag-Omp25 green and MitoTracker Red CMXRos red fluorescence). As for the experimental part:
HeLa cells cultured in Dulbecco's Modified Eagle Medium (DMEM) were transfected with the plasmid pEmGFP-HaloTag-Omp25 containing a gene sequence encoding the EmGFP-HaloTag-Omp25 fusion protein localized on the mitochondrial outer membrane, and were allowed to stably express the protein. As a result, mitochondria in the cells were able to be observed using green fluorescence as an indicator.
A red fluorescent dye MitoTracker Red CMXRos (Thermo Fisher Scientific, M7513) was added thereto, followed by incubation for 30 minutes to stain mitochondria. At this stage, the mitochondria in the cells had been stained in two colors by EmGFP-HaloTag-Omp25 and MitoTracker Red CMXRos. Subsequently, MitoTracker Red CMXRos in the medium was removed by medium exchange. Mitochondria to be biosynthesized after this operation can only be detected with green fluorescence, and are not to be detected with red fluorescence. This difference was utilized to observe the degradation process of mitochondria by living cell imaging.
The cells were divided into two groups. Indole-FBn was added to an experimental group at a final concentration of […] was not added to a control group. In order to observe living cells at a fixed point for a long period of time, a culture vessel was fixed to a stage-top incubator (37° C., 5% CO2) mounted on a fluorescence microscope (KEYENCE, BX9000), and all the subsequent operations were performed on the microscope. […]
The signals of EmGFP-HaloTag-Omp25 and MitoTracker Red CMXRos at the time of the addition of Indole-FBn (−10 h), the time of the addition of CCCP (0 h), 2 hours after the addition of CCCP (+2 h), […] after the addition of CCCP (+8 h), and 16 hours after the addition of CCCP (+16 h) are shown in FIG. 6 and FIG. 7. In the graphs, the intensities of the signals of EmGFP-HaloTag-Omp25 (green fluorescence) and MitoTracker Red CMXRos (red fluorescence) in the photographs shown in FIG. 6 are shown as relative values with the respective intensities at −10 h being defined as 1. […]

The subject of the next experiment is Detroit532 cells. Nature of the experiment: JC-1 staining of mitochondrial membrane potential. Particulars: Down syndrome patient foreskin-derived fibroblasts; 10 μM, incubation for 3 days. As for the experimental part: Detroit532 cells, which were Down syndrome patient foreskin-derived fibroblasts, were cultured in Eagle's Minimum Essential Medium. The cells were divided into two groups. A compound (Indole-FBn) was added to an experimental group at a final concentration of 10 μM, and was not added to a control group, followed by incubation for 3 days (37° C., 5% CO2). The cells of each group were each stained with JC-1 (abcam, 113850).
The JC-1 dye accumulates in mitochondria having a normal membrane potential to emit red fluorescence. Meanwhile, its localization is lost from mitochondria having an abnormal membrane potential and green fluorescence is emitted. That is, in a JC-1 staining image, a lower “green/red fluorescence intensity ratio” means that the membrane potential of mitochondria is kept more normal. Staining images were analyzed with ImageJ (National Institute of Health), and the “green/red fluorescence intensity ratio” is shown as a graph. Error bars represent standard deviations obtained from data from three independent experiments.

As to `CC(=O)N[C@@H](CSc1nc2c(=O)[nH]c(N)nc2n1Cc1ccc(F)cc1)C(=O)NCCCOCCOCCOCCCNC(=O)C(=O)c1c(-c2ccccc2)[nH]c2ccccc12` [Indole-FBn, (R)-2-Acetylamino-3-[2-amino-9-(4-fluoro-benzyl)-6-oxo-6,9-dihydro-1H-purin-8-ylsulfanyl]-N-{3-[2-(2-{3-[2-oxo-2-(2-phenyl-1H-indol-3-yl)-acetylamino]-propoxy}-ethoxy)-ethoxy]-propyl}-propionamide], the “cytoprotective effect under the CCCP-treated condition in coexistence of autophagy inhibitor Baf A1” value in the experiment with HeLa cells (Baf A1 200 nM added 2 hours before Indole-FBn treatment, CCCP 10 μM) is listed as “significantly inhibited”. For the same compound, the “cell death due to mitochondrial injury (cell viability)” value with HeLa cells (Indole-FBn 1 μM for 10 hours, then CCCP 10 μM for 2 hours, versus non-Indole-FBn-treated control) is reported as “significantly suppressed cell death”. For the same compound, in experiment [1] (Indole-FBn-treated group, 2 h, 8 h after CCCP, relative to intensities at -10 h defined as 1), the “green and red signal intensities after the addition of CCCP” value was “reduced”. Further, in experiment [1] (living cell imaging experiment, overall conclusion), the “removal of injured mitochondria and production of new mitochondria” value is “promoted both the removal of injured mitochondria and the production of new mitochondria”. Besides, in experiment [1] (only in the Indole-FBn-treated group, indicates production of new mitochondria), the “green fluorescence intensity, comparison of 8 hours and 16 hours after the addition of CCCP” value is “increased”. In addition, the “quality of mitochondria (JC-1 green/red fluorescence intensity ratio, membrane potential)” value in the experiment on Detroit532 cells was “significantly improved”.
